# What was measured:
# [1] = system: 6-OHDA unilateral lesion of the dopaminergic nigrostriatal pathway; experiment: 6-Hydroxydopamine model (rotation); type: in vivo, Male Wistar mice
# Procedure: 6-Hydroxydopamine (6-OHDA) is a neurotoxin which causes a unilateral lesion of the dopaminergic nigrostriatal pathway that induces hypersensitivity of the post synaptic dopaminergic receptor in the striatum of the lesioned side. An indirect acting compound like amphetamine is administered the mice rotate toward the lesioned side (ipsilateral) as opposed to when a direct acting dopaminergic drug is administered which causes then to rotate contra laterally. Therefore, this test can be used for the study of central dopamine function and the evaluation of dopamine antagonists and agonists, particularly the activity of novel anti-parkinsonian drugs. This test clearly distinguishes drugs with predominantly dopamine receptor agonist activity from those with predominantly dopamine releasing activity of the drug.
# Procedure: Male Wistar […] weighing 200-250 grams at the time of surgery are used. They are housed individually in a controlled environment with free access to food and water. The animals are anaesthetized with sodium pentobarbital. The head is placed in a stereotaxic device (DKI 900) and positioned according to the atlas of Konig and Klippel. After a sagittal cut is made in the skin of the skull, a 2 mm wide hole is drilled with an electrical trepan drill. Care is taken not to lesion the meninges. A 30 gauge stainless-steel cannula connected to a Hamilton syringe is aimed at the anterior zona compacta of the substantia nigra (coordinates anterior 1.88 mm, lateral 2.0 mm and dorso-ventral—8.2 mm from instrument zero). A total of 8 μg of […] in 4 γ/L of saline is injected at a rate of 1 γ/L/min. After the intra-cranial injection, the wound is closed.
# The animal is allowed several weeks for recovery and for development of the lesion. Specially constructed opaque plastic spheres attached to solid state programming equipment serve as test chambers. The number of full turns, either ipsilateral or contra lateral to the lesion, are recorded on an automatic printout counter every 15 min for one or two hours test sessions. To determine the control values for ipsilateral turning, each subject is administered 2.5 mg/kg of d amphetamine and immediately placed in the circling chamber for 2 hours Control values for contra lateral circling are determined by injecting apomorphine at 1 mg/kg s.c. and recording the rat's circling for 1 hour. Test compounds are given i.p or sc. And the animals placed into the circling chambers. Circling is recorded over a 1 hour period. This experiment is conducted in 30 animals and the average is represented in the table
# [2] = system: oxotremorine induced tremors; experiment: Oxotremorine antagonism (tremor, salivation, lacrimation scores); type: in vivo, NMRI mice
# Procedure: Oxotremorine is a cholinergic drug which is a muscarine agonist and induces parkinsonism-like signs such as tremors, ataxia, spasticity, salivation, lacrimation and hypothermia. Oxotremorine is a cholinergic drug, which induces excessive tremors in mice. If a drug is having anti-cholinergic property like atropine the tremors will be decreased.
# Procedure: Groups of 6-10 male NMRI mice weighing 18-22 g are used. They are dosed orally with the test compound or the standard (5 mg/kg benezatropine mesilate) 1 hour prior to the administration of 0.5 mg/kg oxotremorine. Tremor is scored after oxotremorine dosage in periods of 5 min for 1 hour.
# After the administration of 0.5 mg/kg of Oxotremorine, the tremors started within 15 mins and were sustained for 30 mins.
# [3] = system: Haloperidol induced catalepsy; experiment: Haloperidol induced catalepsy in mice (bar test); type: in vivo, Swiss Albino mice
# Text: Haloperidol is neuroleptic agent that blocks the Dopamine D2 receptor in the brain. This precipitates the extra-pyramidal side effects which can be measured by the “Bar Test for catalepsy in mice”. Catalepsy in mice is defined as a failure to correct an externally imposed unusual posture over a prolonged period of time. […] Haloperidol induced catalepsy can be reversed if dopaminergic drugs that supply dopamine to the striatum of the brain since it increase competitive antagonism.
# Procedure: Swiss Albino mice of either sex weighing 23-28 g are used. Catalepsy was induced by Haloparidol (0.5 mg/kg i.p.) and assessed by bar test up to 3 hrs. Six animals are dosed with the saline, test drug and the standard intraperitonially. The animals are placed in translucent plastic boxes with a wooden dowel mounted horizontally 2.5 cm from the floor of the box. The animals are allowed to adapt to the box for 2 min. Then, each animal is grasped gently around the shoulders and under the forepaws and placed carefully on the dowel. The amount of the time spent with at least one forepaw on the bar is determined. When the animal removes its paws, the time is recorded and the mice are repositioned on the bar. Three trials are conducted for each animal at 30, 60, 120 and 360 min, with 6 animals in each group.
# [4] = positive control 5 mg/kg and oxytremorine, n = 6
compound,measurement,setting,value
CN1CCc2cccc3c2[C@H]1Cc1ccc(O)c(O)c1-3 [Apomorphine],Contra-lateral Rotation,[1]; Apomorphine 0.3 mg/kg,169.33
same,Ipsilateral Rotation,[1]; Apomorphine 0.3 mg/kg,0.67
CN1[C@@H]2CC[C@H]1C[C@@H](OC(=O)C(CO)c1ccccc1)C2 (stereo partly shown) [Atropine],decrease in severity of tremors,"[2]; Atropine 1 mg/kg, FIG. 2",significant decrease in severity of tremors
same,Lacrimation score at 30 minutes,"[2]; Atropine, dose not given",0.6
same,Salivation score at 30 minutes,"[2]; Atropine, dose not given",0.8
same,Tremor score 5 minutes,[2]; [4],0.9
same,Tremor score 15 minutes,[2]; [4],0.9
same,Tremor score 30 minutes,[2]; [4],1.0
same,Tremor score 45 minutes,[2]; [4],1.3
"N[C@@H](Cc1ccc(O)c(O)c1)C(=O)O [L-Dopa, Dihydroxy Phenyl Alanine]",Contra-lateral Rotation,[1]; L-Dopa 10 mg/kg,45.67
same,Ipsilateral Rotation,[1]; L-Dopa 10 mg/kg,0.83
same,reduction of catalepsy,"[3]; L-DOPA (10)+Hal (0.5) compared with Hal (0.5) at respective time, FIG. 1",significant at P<0.001
same,"reducing catalepsy, standard versus test drug",[3]; L-Dopa 10 mg/kg compared with test drug 100 mg/kg,more effective than the test drug at a dosage of 100 mg/kg

# From patent publication US9149469B2, “Pharmaceutical composition and a process thereof” (INDUS Biotech PVT. Ltd., priority 2007, dated 2015)
